Where two headings read alike, the source gives them in different places.

One experiment has as its system Septoria tritici. Format: cell-based.
Another experiment has as its system Alternaria solani. Format: cell-based.
For experiment [1], the system named is southern green stink bug (Nezara viridula). As to the kind of experiment: Test 5: control of southern green stink bug, dipped green beans and bugs. Particulars: 10 ppm.
Another experiment concerns Botrytis cinerea. The format is cell-based. Particulars: concentration 4.
For a further experiment, the system named is Leptosphaeria nodorum. Format: cell-based.
For a further experiment, the system named is Phytophthora infestans. The format is cell-based.
Another experiment relates to Pyricularia oryzae. The format is cell-based.
Experiment [2] has as its system southern green stink bug (Nezara viridula). As to the kind of experiment: Test 7: control of southern green stink bug on dipped Lima bean plants. Format: in vivo. The conditions noted are these: 50 ppm; mortality (sick + death insects) of second instar at 5 days. The procedure: Beauveria bassiana strain PPRI 5339 was at room temperature for one hour before use.
Seven days old Lima bean plants were dipped into each treatment. Once dried, plants were artificially infested with four second instar southern green stink bugs. Percentage of mortality (sick+ death insects) was evaluated at 5 days.

For `Fc1ccc([C@]2(Cn3cncn3)O[C@H]2c2ccccc2Cl)cc1` (racemic) [Epoxiconazol, epoxiconazole], the figures for the Observed efficacy in the experiment with Septoria tritici (concentration 0.25) and in the experiment with Alternaria solani (concentration 0.25) were 35% and 36%, respectively.

In experiment [1], `Cn1cc(C(=O)Nc2ccccc2-c2cc(F)c(F)c(F)c2)c(C(F)F)n1` [Fluxapyroxad, fluxapyroxad] gave an Observed efficacy of 0%.

For the compound `CO/N=C(/C1=NOCCO1)c1ccccc1Oc1ncnc(Oc2ccccc2Cl)c1F` [Fluoxastrobin, fluoxastrobin], the Observed efficacy in the experiment on Alternaria solani (concentration 0.25) came out at 11%.

On to `CCCN(CCOc1c(Cl)cc(Cl)cc1Cl)C(=O)n1ccnc1` [Prochloraz, prochloraz], for which the Observed efficacy was determined as 39% in the experiment with Botrytis cinerea and 49% with Septoria tritici (concentration 4).

`CC1COC(Cn2cncn2)(c2ccc(Oc3ccc(Cl)cc3)cc2Cl)O1` (stereo not shown) [Difenoconazol, difenoconazole]: the figures for the Observed efficacy with Alternaria solani (concentration 1) and in the experiment with Leptosphaeria nodorum (concentration 1) were 0% and 21%, respectively.

For the compound chlorothalonil, the Observed efficacy in the experiment with Botrytis cinerea was 53%; in the experiment with Leptosphaeria nodorum (concentration 1) it was 39%.

Take `C[C@@H]1C(=O)O[C@H]2C[C@@]34[C@H]5C[C@@H](C(C)(C)C)[C@]36[C@@H](OC(=O)[C@@H]6O)O[C@@]4(C(=O)O5)[C@]21O` [Ginkgolide A]: the Observed efficacy in the experiment on Septoria tritici (concentration 63) came out at 16%; in the experiment with Alternaria solani (concentration 16), 0%; in the experiment on Alternaria solani (concentration 63), 0%; in the experiment on Leptosphaeria nodorum (concentration 63), 18%.

On to `CC1(C(=O)Nc2ccc(O)c(Cl)c2Cl)CCCCC1` [Fenhexamid, fenhexamid], for which the Observed efficacy in the experiment with Alternaria solani (concentration 4) amounted to 46%.

Take `CON=C(C(=O)OC)c1ccccc1CON=C(C)c1cccc(C(F)(F)F)c1` [Trifloxystrobin, trifloxystrobin]: the results for the Observed efficacy in the experiment with Septoria tritici (concentration 0.004) and in the experiment with Septoria tritici (concentration 0.016) were 7% and 67%, respectively.

In the case of `CO/C=C(/C(=O)OC)c1ccccc1COc1cccc(C(F)(F)F)n1` [Picoxystrobin, picoxystrobin], the Observed efficacy in the experiment with Alternaria solani (concentration 0.25) worked out at 39%.

For `CC(C)(C)[C@]1(O)C[C@@H]2OC(=O)C[C@@]23C(=O)O[C@@H]2OC(=O)[C@H](O)[C@]213` [Bilobalide, (3aS,5aR,8aS,9R,10aR)-9-tert-butyl-8,9-dihydroxydihydro-9H-furo[2,3-b]furo[3′,2′;2,3]cyclopenta[1,2-c]furan-2,4,7(3H,8H)-trione], the Observed efficacy in the experiment on Phytophthora infestans (0.063 ppm) is listed as 0%; in the experiment with Phytophthora infestans (0.25 ppm), 4%; in the experiment on Phytophthora infestans (1 ppm) it was 24%; in the experiment with Pyricularia oryzae (concentration 4) it was 3%; in the experiment on Pyricularia oryzae (concentration 16), 1%; in the experiment with Pyricularia oryzae (concentration 63) it was 5%. Moreover, the Observed efficacy was determined as 6% in the experiment with Septoria tritici (concentration 1); 8% with Septoria tritici (concentration 4); 9% in the experiment with Septoria tritici (concentration 16); 0% in the experiment with Alternaria solani (concentration 16); 0% in the experiment on Alternaria solani (concentration 63); 24% with Leptosphaeria nodorum (concentration 63). Moreover, the Observed efficacy in experiment [2] is reported as 33%.

The compound `CCCCCCCCc1c(CC)nc2ncnn2c1N` [Ametoctradin, ametoctradin] had an Observed efficacy with Phytophthora infestans (0.004 ppm) of 0%.

For the compound `COC(=O)N(OC)c1ccccc1COc1ccn(-c2ccc(Cl)cc2)n1` [Pyraclostrobin, pyraclostrobin], the figures for the Observed efficacy (in the experiment on Septoria tritici (concentration 0.004); in experiment [1]) were 59% and 0%, respectively.

The values above are taken from patent US10334859B2, “Method and pesticidal mixtures for controlling Pentatomidae pests” (BASF SE, priority 2014, dated 2019).
